The record followed here is publication PMC8759731, “Design, synthesis, and evaluation of novel coumarin-dithiocarbamate derivatives (IDs) as anti-colorectal cancer agents” (Journal of Enzyme Inhibition and Medicinal Chemistry, 2021).

In data set [1] the test system is SW480 cells. The data set is described as follows: MTS cell viability assay, SW480 cells. The class given is cell-based. The note with it: Homo sapiens, 72 h. An excerpt: (§1) Human colorectal cancer cell lines including RKO, SW620 and SW480 were purchased from Chinese Academy of Sciences, a typical cell library culture preservation committee (Shanghai, China). Normal human colon epithelial cell line NCM460 was purchased from ATCC (Washington, DC, USA). RPMI-1640 medium (12633020), foetal bovine serum (FBS, 26170043), penicillin-streptomycin (10378016) and phosphate buffered saline (PBS, 70011044) were purchased from Gibco (Eggenstein, Germany). 5-Fluorouracil (5-FU, E0201010050, purity ≥98%) was purchased from Energy Chemical (Shanghai, China). Dimethyl sulfoxide (DMSO, 41639) was obtained from Sigma-Aldrich (St. Louis, MO). 3–(4,5-dimethylthiazol-2-yl)-5–(3-carboxymethoxyphenyl)-2–(4-sulfophenyl)-2H-tetrazolium (MTS, G1111) was purchased from Promega (Madison, WI, USA). All cell lines were cultured in RPMI-1640 medium supplemented with 10% FBS, penicillin (100 units/mL) and streptomycin ([…]) at 37 °C in a humidified atmosphere containing 5% CO2.
(§2) Cell viability was measured via MTS assay. RKO, SW620, SW480 and NCM460 cells were seeded in 96-well plates at a density of 5000 cells per well for 24 h. After treatment with the test compounds at indicated concentration for another 48 h or 72 h at 37 °C, MTS solution was added to each well and incubated for another 30 min at 37 °C. Then, the absorbance at 490 nm was measured by a BioTek Synergy H4 microplate Reader (Vermont, USA). The IC50 values were calculated with Graphpad 7.0 software packages.

Data set [2] is described as follows: MTS cell viability assay, NCM460 normal colon epithelial cells. The class given is cell-based, human. The note with it: human, NCM460 normal colon epithelial cells, 10 μM.
Source text: as §1, §2

In data set [3] the test system is NCM460 cells. Described as above. The class given is cell-based, human. Particulars: Homo sapiens, 48 h.
Source text: as §1, §2

Data set [4] has as its target T1, BRD4 (BD2) (Homo sapiens, UniProt O60885).
T1 construct: purchased Reaction Biology Corp. RD-11-158
The data set is described as follows: HTRF assay BRD4 (BD2). The note with it: read-out: Inhibitory rate at 10 μM, BRD4 (BD2). The data set is classed as binding. The method, then:
In brief, compounds were serially diluted in Echo plate according to the plate map and DMSO’s final fraction is 0.1%. Then, transferring compounds and DMSO to 384-well assay plate by Echo. After that, 2× Protein and Peptide Mix was added to the assay plate and 2× Detection Mix was then added to assay plate and shook for 30 s. After incubating the plate at room temperature for 1.5 h, the HTRF signals (Excitation wavelength at 340 nm, Emission wavelength at 615 & 665 nm) was read on EnVision (PerkinElmer, UK). (+)-JQ1 (BPS Bioscience, Cat. No. 27402) was used as a positive control. BRD4-1 (RD-11–157) and BRD4-2 (RD-11–158) were purchased from Reaction Biology Corp. (PENN, USA). For Curve fitting, the inhibition values was calculated in Excel using Equation (1): Inhibition %=(Max-Signal)/(Max-Min)*100, and the IC50 values was calculated in XL-Fit using Equation (2): Y = Bottom + (Top-Bottom)/(1+(IC50/X)[…]), Y is %inhibition and X is compound concentration.

Data set [5] concerns SW620 cells. The data set can be described thus: Colony formation, SW620 cells. The note with it: 0 to 32 μM for 24 h, then 10 days. The class given is cell-based, human. As for the experimental part:
SW620 and SW480 cells were seeded in 6-well plates (1000 cells per well) and cultured in RPMI-1640 medium containing 10% FBS overnight. After the cells treatment with DMSO or compound ID-11 (4, 8, 16, and 32 μM) for 24 h, the culture medium was replaced by fresh RPMI-1640 medium (containing 10% FBS) and continue culturing for another 10 days. Then the cells were washed with PBS and fixed with methanol for 15 min and stained with 0.1% crystal violet for another 30 min. Finally, the cells were washed with running water, air-dried and visualised by photographing.

Data set [6] has as its system SW480 cells. The data set can be described thus: Cell cycle analysis (PI, flow cytometry), SW480 cells. The class given is cell-based, human. Particulars: SW480, 16 μM, 24 h. The method, then:
Cells were seeded in 6-well plates (40,000 cells per well) and cultured in RPMI-1640 medium containing 10% FBS overnight. Then the cells were exposed to DMSO or compound ID-11 (8 or 16 μM) for 24 h. After that, cells were collected, washed with cold PBS for twice and fixed in 75% ethanol overnight at 4 °C. Subsequently, ethanol was removed and suspended in PBS for twice, and then RNase A and propidium iodide (PI) (Multi Sciences, Hangzhou, China) was added and keep in the darkness for 30 min. Finally, the percentages of cells in different cell cycle phases were measured using a FACS Calibur flow cytometer (Bectone Dickinson, San Jose, CA, USA).

The test system of data set [7] is SW620 cells. The data set can be described thus: Annexin V-FITC/PI apoptosis analysis, SW620 cells. The class given is cell-based, human. The note with it: SW620, 16 μM, 24 h. The method, then:
(§3) Cell apoptosis was determined using Annexin V-FITC/PI Apoptosis Detection Kit (BD Biosciences, New Jersey, USA) in according with manufacturer's instruction. Briefly, cells were cultured in 6-well plates (40 000 cells per well) till reaching logarithmic growth phase and then treatment with DMSO or compound ID-11 (8 or 16 μM) for 24 h. Afterwards, the cells were harvested, washed with PBS for twice and stained with 100 μL of the mixture of Annexin V/FITC and PI in binding buffer (v/v, 5: 5: 100) in the darkness for 30 min. Another 200 μL binding buffer was added before detection. The apoptotic cells were then analysed by FACS Calibur flow cytometry immediately.

The subject of data set [8] is SW480 cells. The data set is described as follows: Annexin V-FITC/PI apoptosis analysis, SW480 cells. The data set is classed as cell-based, human. Particulars: SW480, 16 μM, 24 h. The method, then: as §3
The test system of data set [9] is SW620 cells. The data set can be described thus: Quantitative RT-PCR, SW620 cells. Particulars: SW620, 0 to 24 μM, 24 h, qRT-PCR. The data set is classed as cell-based, human. As for the experimental part:
Cells (50,000 cells per well) incubated in 6-well plates were treated with compound ID-11 for 24 h. After that, the total RNA was extracted using Total RNA Extraction Reagent (Invitrogen, USA) according to the manufacturer’s instructions and quantified with NanoDrop 2000 (Nanodrop, USA). Then the cDNA was synthesized from total RNA using High-Capacity cDNA Reverse Transcription Kit (Applied Biosystems, USA). The SYBR Green Master reagents (Applied Biosystems, USA) was used to determine the relative expression of mRNA level by quantitative real-time PCR (qRT-PCR). The primer sequences are shown below.

Regarding `O=c1ccc2cc(CSC(=S)n3ccnc3)ccc2o1` [ID-11, (2-Oxo-2H-chromen-6-yl)methyl 1H-imidazole-1-carbodithioate], the viability at 10 µM in data set [1] (10 μM) came to 20.2%. For the same molecule, the IC50 was found to be 3.57 µM in [1] and 23.9 µM in [3]. The viability at 48 h, 10 µM in [2] amounted to 80.8%. Moreover, in data set [4], the inhibition at 10 µM was determined as 35.7%. In addition, in data set [5], the colony formation result is “effectively inhibited”. The “cell cycle distribution G2 (G2/M phase)” value in data set [6] worked out at 21.03%. Besides, the total apoptosis rate in data set [7] was found to be 73.31%; in data set [8] it was 23.23%. Moreover, the “mRNA relative expression level of Bcl-2” value in data set [9] is listed as “also decreased in a concentration dependent way”. For the same molecule, in data set [9], the “mRNA relative expression level of c-Myc” value was “also decreased in a concentration dependent way”.
